Reference: ChEMBL document CHEMBL1201862, “PubChem BioAssay data set” (2004)
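Where inhibition never reached the appropriate level, the endpoint shown equals the highest concentration tested. Otherwise, values were interpolated linearly from a five-concentration, 48-hour dose response in 96-well plates. Here, GI50 denotes the concentration required for 50% inhibition of growth.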 The source made the active and inactive calls. Cut-off read from the data, not from the text of the source: active = GI50 up to about 1.1 µM and inactive = higher.

Legend:
Test in all cases: NCI tumour cell line growth inhibition, 48 h
A549 = tested on: A549
CAKI-1 = tested on: CAKI-1
CCRF-CEM = tested on: CCRF-CEM
COLO 205 = tested on: COLO 205
HOP-62 = tested on: HOP-62
IGROV-1 = tested on: IGROV-1
MDA-MB-231 = tested on: MDA-MB-231
NCI-H226 = tested on: NCI-H226
NCI-H23 = tested on: NCI-H23
OVCAR-8 = tested on: OVCAR-8
PC-3 = tested on: PC-3
RXF 393 = tested on: RXF 393
SK-MEL-2 = tested on: SK-MEL-2
SK-MEL-5 = tested on: SK-MEL-5
SK-OV-3 = tested on: SK-OV-3
SN12C = tested on: SN12C
UACC-257 = tested on: UACC-257
MDA-MB-435 = tested on: MDA-MB-435
SK-MEL-28 = tested on: SK-MEL-28
HT-29 = tested on: HT-29

SMILES	GI50 (A549)	GI50 (CAKI-1)	GI50 (CCRF-CEM)	GI50 (COLO 205)	GI50 (HOP-62)	GI50 (IGROV-1)	GI50 (MDA-MB-231)	GI50 (NCI-H226)	GI50 (NCI-H23)	GI50 (OVCAR-8)	GI50 (PC-3)	GI50 (RXF 393)	GI50 (SK-MEL-2)	GI50 (SK-MEL-5)	GI50 (SK-OV-3)	GI50 (SN12C)	GI50 (UACC-257)	GI50 (MDA-MB-435)	GI50 (SK-MEL-28)	GI50 (HT-29)
NCCc1ccc2c(c1)C(=O)c1c(O)ccc(O)c1C2=O	3.56 µM (inactive)	4.84 µM (inactive)	3.36 µM (inactive)	1.68 µM (inactive)	3.6 µM (inactive)	3.4 µM (inactive)	4.51 µM (inactive)	17 µM (inactive)	3.5 µM (inactive)	2.04 µM (inactive)	3.33 µM (inactive)	> 21.6 µM (inactive)	6.55 µM (inactive)	0.843 µM (active)	5.86 µM (inactive)	2.51 µM (inactive)	15.2 µM (inactive)	–	–	–
C#CCCCC(=C)C[C@@H]1OC(=O)[C@H](C)[C@@H]1O	> 100 µM (inactive)	> 100 µM (inactive)	> 100 µM (inactive)	> 100 µM (inactive)	> 100 µM (inactive)	–	–	–	> 100 µM (inactive)	–	> 100 µM (inactive)	> 100 µM (inactive)	> 100 µM (inactive)	> 100 µM (inactive)	> 100 µM (inactive)	> 100 µM (inactive)	–	> 100 µM (inactive)	> 100 µM (inactive)	–
C#CCOCn1cc(C)c(=O)[nH]c1=O	> 100 µM (inactive)	> 100 µM (inactive)	> 100 µM (inactive)	> 100 µM (inactive)	> 100 µM (inactive)	> 100 µM (inactive)	> 100 µM (inactive)	> 100 µM (inactive)	> 100 µM (inactive)	> 100 µM (inactive)	> 100 µM (inactive)	–	> 100 µM (inactive)	> 100 µM (inactive)	> 100 µM (inactive)	> 100 µM (inactive)	> 100 µM (inactive)	–	> 100 µM (inactive)	> 100 µM (inactive)
C/C=C1\CN(C(=O)OC(C)(C)C)C1C(=O)OC(C)(C)C (stereo not drawn)	> 100 µM (inactive)	> 100 µM (inactive)	> 100 µM (inactive)	> 100 µM (inactive)	> 100 µM (inactive)	> 100 µM (inactive)	–	–	> 100 µM (inactive)	> 100 µM (inactive)	> 100 µM (inactive)	–	> 100 µM (inactive)	> 100 µM (inactive)	> 100 µM (inactive)	> 100 µM (inactive)	> 100 µM (inactive)	> 100 µM (inactive)	> 100 µM (inactive)	> 100 µM (inactive)
O=C1/C(=C\c2ccc(F)cc2)CCOc2c1ccc1ccccc21	23.4 µM (inactive)	21.1 µM (inactive)	5.82 µM (inactive)	19 µM (inactive)	26.8 µM (inactive)	–	14.8 µM (inactive)	–	12.8 µM (inactive)	12.7 µM (inactive)	33 µM (inactive)	13.4 µM (inactive)	45.7 µM (inactive)	21.2 µM (inactive)	36.6 µM (inactive)	35.3 µM (inactive)	19.5 µM (inactive)	26.8 µM (inactive)	23.3 µM (inactive)	17.4 µM (inactive)
COc1ccccc1NCC(=O)Nn1c(C)nc2ccc(S(=O)(=O)Nc3ccccc3OC)cc2c1=O	97.5 µM (inactive)	> 100 µM (inactive)	53.5 µM (inactive)	> 100 µM (inactive)	> 100 µM (inactive)	42.7 µM (inactive)	> 100 µM (inactive)	> 100 µM (inactive)	> 100 µM (inactive)	> 100 µM (inactive)	88.5 µM (inactive)	–	> 100 µM (inactive)	–	> 100 µM (inactive)	> 100 µM (inactive)	> 100 µM (inactive)	26.7 µM (inactive)	> 100 µM (inactive)	43.8 µM (inactive)
N#Cc1nc(/C=C/c2cccs2)oc1N	> 100 µM (inactive)	65.3 µM (inactive)	25.4 µM (inactive)	–	> 100 µM (inactive)	65.9 µM (inactive)	> 100 µM (inactive)	–	–	> 100 µM (inactive)	97.1 µM (inactive)	> 100 µM (inactive)	> 100 µM (inactive)	51.1 µM (inactive)	> 100 µM (inactive)	> 100 µM (inactive)	> 100 µM (inactive)	> 100 µM (inactive)	> 100 µM (inactive)	> 100 µM (inactive)
Cc1cc(C)c(N[S+]([O-])c2cccc([N+](=O)[O-])c2)c(C)c1 (stereo not drawn)	> 100 µM (inactive)	–	> 100 µM (inactive)	> 100 µM (inactive)	> 100 µM (inactive)	–	–	> 100 µM (inactive)	> 100 µM (inactive)	> 100 µM (inactive)	> 100 µM (inactive)	> 100 µM (inactive)	–	–	–	> 100 µM (inactive)	> 100 µM (inactive)	> 100 µM (inactive)	> 100 µM (inactive)	> 100 µM (inactive)
